The results in this text go back to patent US9976141B2, “Compositions and methods for inhibiting gene expression of Hif2alpha” (Arrowhead Madison Inc., priority 2015, dated 2018).

For this series, the system named is human (tumor) Hif2α (EPAS1) mRNA. As to the kind of experiment: Hif2α knockdown in orthotopic RCC tumor bearing mice, single injection of RNAi trigger-delivery polymer conjugate, RT-qPCR (Table 7). It is filed as in vivo. Conditions: single tail vein injection, relative to isotonic glucose. Summed up:
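Female athymic nude mice carried orthotopic A498-SEAP ccRCC kidney tumours, used 5–6 weeks after implantation. They received one tail-vein injection of RGD-targeted Hif2α RNAi trigger–polymer conjugate or isotonic glucose. Tumour Hif2α mRNA was measured by TaqMan RT-qPCR normalised to CycA (ΔΔCT) and expressed relative to glucose-treated mice.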
On the technique in general: Real-time PCR tracks product formation cycle by cycle.

[1] abbreviates: RNAi trigger 150 μg, polymer 100A 300 μg.
Setting [2] is: RNAi trigger 50 μg, polymer 064 125 μg.

On to “AD01025 (antisense TCUAGCAACAAAACCUUAATT; sense UUAAGGUUUUGUUGCUAGAT; Hif2alpha RNAi agent antisense strand; modified_base 2,4,6,8,10,12,14,16,18 /mod_base = “2′-deoxy-2′-fluoro corresponding nucleoside”; modified_base 3,5,7,9,11,13,15,17,19 /mod_base = “2′-O-methyl corresponding nucleoside”; modified_base 21 /mod_base = “5′-phosphorothioate corresponding nucleotide”; Hif2alpha RNAi agent sense strand; modified_base 1,3,5,7,9,11,13,15,17,19 /mod_base = “2′-deoxy-2′-fluoro corresponding nucleoside”; modified_base 2,4,6,8,10,12,14,16,18 /mod_base = “2′-O-methyl corresponding nucleoside”; modified_base 20 /mod_base = “3′-3′-linked nucleotide”; modified_base 1 /mo)”, for which the “Relative Expression day 4 (Hif2α mRNA in kidney tumor)” value (RNAi trigger 80 μg, polymer 126 400 μg) was determined as 0.34.
Consider “AD01886 (antisense UCUAGCAACAAAACCUUAATT; sense UUAAGGUUUUGUUGCUAGAT; Hif2alpha RNAi agent antisense strand; modified_base 2,4,6,8,10,13,14,16,18 /mod_base = “2′-deoxy-2′-fluoro corresponding nucleoside”; modified_base 1,3,5,7,9,11,12,15,17,19 /mod_base = “2′-O-methyl corresponding nucleoside”; modified_base 2,3,21 /mod_base = “5′-phosphorothioate corresponding nucleotide”; Hif2alpha RNAi agent sense strand; modified_base 1,3,5,8,9,11,13,15,17,19 /mod_base = “2′-deoxy-2′-fluoro corresponding nucleoside”; modified_base 2,4,6,7,10,12,14,16,18 /mod_base = “2′-O-methyl corresponding nucleoside”; modified_base 20 /mod_base = “3′-3′-linked nucleotide”; modified_base)”, for which the “Relative Expression day 4 (Hif2α mRNA in kidney tumor)” value (RNAi trigger 100 μg, polymer 064 250 μg) is on record as 0.292.
“AD01408 (antisense TUUCAUGAAAUCGUUACGUCGGCUAU; sense UAUAUCGACGUAACGAUUUCAUGAAA; Hif2alpha RNAi agent antisense strand; modified_base 25 modified base = “2′-hydroxy corresponding nucleoside”; modified_base 2,4,6,8,10,12,14,16,18,20 /mod_base = “2′-deoxy-2′-fluoro corresponding nucleoside”; modified_base 3,5,7,11,13,15,17,19,21,22,23,24,26 /mod_base = “2′-O-methyl corresponding nucleoside”; modified_base 9 /mod_base = “2′-3′ seco corresponding nucleotide”; modified_base 2,3,23,; Hif2alpha RNAi agent sense strand; modified_base 2,4 modified base = “2′-hydroxy corresponding nucleoside”; modified_base 6,8,10,12,14,16,18,20,22,24,26 /mod_base = “2′-deoxy-2′-fluoro correspondi)”: the “Relative Expression day 4 (Hif2α mRNA in kidney tumor)” value under setting [1] worked out at 0.50.
For the substance “AD03188 (antisense AGUAAAACAAUUGUGUACUUU; sense AGUACACAAUUGUUUUACUT; Hif2alpha RNAi agent antisense strand; modified_base 2,4,6,8,10,14,16,18 /mod_base = “2′-deoxy-2′-fluoro corresponding nucleoside”; modified_base 1,3,5,7,9,11,12,13,15,17,19,20,21 /mod_base = “2′-O-methyl corresponding nucleoside”; modified_base 2,3,20,21 /mod_base = “5′-phosphorothioate corresponding nucleotide”; Hif2alpha RNAi agent sense strand; modified_base 3,5,7,8,9,11,13,17 /mod_base = “2′-deoxy-2′-fluoro corresponding nucleoside”; modified_base 1,2,4,6,10,12,14,15,16,18,19 /mod_base = “2′-O-methyl corresponding nucleoside”; modified_base 20 /mod_base = “3′-3′-linked nucleotide”; modi)”, the “Relative Expression day 4 (Hif2α mRNA in kidney tumor)” value under setting [2] was 0.308.
Consider “AD01424 (antisense TUUCAUGAAAUCGUUACGUCGGCUAU; sense UAUAUCGACGUAACGAUUUCAUGAAA; Hif2alpha RNAi agent antisense strand; modified_base 25 modified base = “2′-hydroxy corresponding nucleoside”; modified_base 2,4,6,8,10,12,14,16,18,20 /mod_base = “2′-deoxy-2′-fluoro corresponding nucleoside”; modified_base 3,5,7,11,13,15,17,19,21,22,23,24,26 /mod_base = “2′-O-methyl corresponding nucleoside”; modified_base 9 /mod_base = “2′-3′ seco corresponding nucleotide”; modified_base 2,3,23,; Hif2alpha RNAi agent sense strand; modified_base 2,4 modified base = “2′-hydroxy corresponding nucleoside”; modified_base 6,8,10,12,14,16,18,20,22,24 /mod_base = “2′-deoxy-2′-fluoro corresponding)”, for which the “Relative Expression day 4 (Hif2α mRNA in kidney tumor)” value under setting [1] worked out at 0.54.
“AD02862 (antisense AUUCAUGAAAUCGUUACGUUG; sense UAUACGUAACGAUUUCAUGAAUT; Hif2alpha RNAi agent antisense strand; modified_base 2,4,6,8,10,14,16,18 /mod_base = “2′-deoxy-2′-fluoro corresponding nucleoside”; modified_base 1,3,5,7,9,11,12,13,15,17,19,20,21 /mod_base = “2′-O-methyl corresponding nucleoside”; modified_base 2,3,20,21 /mod_base = “5′-phosphorothioate corresponding nucleotide”; Hif2alpha RNAi agent sense strand; modified_base 2 modified base = “2′-hydroxy corresponding nucleoside”; modified_base 6,8,10,11,12,16,18,20 /mod_base = “2′-deoxy-2′-fluoro corresponding nucleoside”; modified_base 1,3,4,5,7,9,13,14,15,17,19,21,22 /mod_base = “2′-O-methyl correspon)”: the “Relative Expression day 4 (Hif2α mRNA in kidney tumor)” value under setting [2] amounted to 0.093.
Consider “AD03011 (antisense UUUCAUGAAAUCGUUACGUUG; sense UAUACGUAACGAUUUCAUGAAAT; Hif2alpha RNAi agent antisense strand; modified_base 2,4,6,8,10,14,16,18 /mod_base = “2′-deoxy-2′-fluoro corresponding nucleoside”; modified_base 1,3,5,7,9,11,12,13,15,17,19,20,21 /mod_base = “2′-O-methyl corresponding nucleoside”; modified_base 2,3,20,21 /mod_base = “5′-phosphorothioate corresponding nucleotide”; Hif2alpha RNAi agent sense strand; modified_base 2 modified base = “2′-hydroxy corresponding nucleoside”; modified_base 10,12,16 /mod_base = “2′-deoxy-2′-fluoro corresponding nucleoside”; modified_base 1,3,4,5,6,7,8,9,11,13,14,15,17,18,19,20,21,22 /mod_base = “2′-O-methyl correspon)”, for which the “Relative Expression day 4 (Hif2α mRNA in kidney tumor)” value under setting [2] is 0.183.
Take “AD01654 (antisense TUUCAUGAAAUCGUUACGUTT; sense ACGUAACGAUUUCAUGAAA; Hif2alpha RNAi agent antisense strand; modified_base 2,4,6,8,10,13,14,16,18 /mod_base = “2′-deoxy-2′-fluoro corresponding nucleoside”; modified_base 3,5,7,9,11,12,15,17,19 /mod_base = “2′-O-methyl corresponding nucleoside”; modified_base 2,21 /mod_base = “5′-phosphorothioate corresponding nucleotide”; Hif2alpha RNAi agent sense strand; modified_base 1,3,5,8,9,11,13,15,17,19 /mod_base = “2′-deoxy-2′-fluoro corresponding nucleoside”; modified_base 2,4,6,7,10,12,14,16,18 /mod_base = “2′-O-methyl corresponding nucleoside”; modified_base 2 /mod_base = “5′-phosphorothioate corresponding nucleotide)”: the “Relative Expression day 4 (Hif2α mRNA in kidney tumor)” value (RNAi trigger 100 μg, polymer 100A 250 μg) is 0.185.
For “AD01289 (antisense TUUCAUGAAAUCGUUACGUTT; sense ACGUAACGAUUUCAUGAAAT; Hif2alpha RNAi agent antisense strand; modified_base 2,4,6,8,10,12,14,16,18 /mod_base = “2′-deoxy-2′-fluoro corresponding nucleoside”; modified_base 3,5,7,9,11,13,15,17,19 /mod_base = “2′-O-methyl corresponding nucleoside”; modified_base 21 /mod_base = “5′-phosphorothioate corresponding nucleotide”; Hif2alpha RNAi agent sense strand; modified_base 1,3,5,6,7,9,11,13,15,17,19 /mod_base = “2′-deoxy-2′-fluoro corresponding nucleoside”; modified_base 2,4,8,10,12,14,16,18 /mod_base = “2′-O-methyl corresponding nucleoside”; modified_base 20 /mod_base = “3′-3′-linked nucleotide”; modified_base 1 /mo)”, the “Relative Expression day 4 (Hif2α mRNA in kidney tumor)” value (RNAi trigger 115 μg, polymer 100A 375 μg) came out at 0.28.
